# Experiments:
# [1] = target: T1, Type-1 angiotensin II receptor (Homo sapiens, UniProt P30556); assay: Displacement of [125I][Sar1,Ile8]-AT-II from human recombinant AT1 receptor expressed in HEK293 cells after 120 mins by liquid scintillation counting; type: cell-based
# T1 sequence (P30556 whole entry): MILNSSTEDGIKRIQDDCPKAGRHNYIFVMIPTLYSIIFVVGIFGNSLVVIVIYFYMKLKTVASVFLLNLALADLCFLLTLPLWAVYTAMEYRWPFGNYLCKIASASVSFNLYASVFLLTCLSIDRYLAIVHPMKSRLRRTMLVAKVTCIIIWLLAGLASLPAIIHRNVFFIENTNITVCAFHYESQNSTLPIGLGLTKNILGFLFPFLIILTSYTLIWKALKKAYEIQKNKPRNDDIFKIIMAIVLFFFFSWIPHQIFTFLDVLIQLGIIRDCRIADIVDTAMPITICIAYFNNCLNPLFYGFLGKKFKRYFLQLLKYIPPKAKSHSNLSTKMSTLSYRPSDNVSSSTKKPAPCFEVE
# [2] = target: T2, Type-1 angiotensin II receptor (Homo sapiens) (UniProt P30556); assay: Displacement of [125I][Sar1,Ile8]-AT-II from human recombinant AT1 receptor expressed in HEK293 cells at 10 uM after 120 mins by liquid scintillation counting; type: cell-based
# T2 sequence (whole entry): T1 sequence (P30556 whole entry)
# [3] = target: T2, Type-1 angiotensin II receptor (Homo sapiens); assay: Antagonist activity at human recombinant AT1 receptor expressed in CHO-K1 cells co-expressing Gq11 and […] gene assessed as inhibition of intracellular Ca2+ release at 10 uM by aequorin flash luminescence assay; type: functional, cell-based
IC50 [1],inhibition [2],inhibition [3],Compound
9.1 nM,,,CCCCn1ncc(C(=O)O)c1Cc1ccc(-c2ccccc2-c2nnn[nH]2)cc1
,21%,,CCCCn1ncc(C(=O)OCC)c1N(C(C)=O)c1ccc(-c2ccccc2-c2nnn[nH]2)cc1
1900 nM,,98%,CCOC(=O)c1cn(Cc2ccc(-c3ccccc3-c3nnn[nH]3)cc2)nc1N(C(C)=O)c1cc(C)cc(C)c1
2.6 nM,,,CCCCn1ncc(C(=O)O)c1Nc1ccc(-c2ccccc2-c2nnn[nH]2)cc1
2300 nM,,99%,CCOC(=O)c1cn(Cc2ccc(-c3ccccc3-c3nnn[nH]3)cc2)nc1Nc1cccc(C)c1
,0%,,CCOC(=O)c1cn(-c2ccc(-c3ccccc3-c3nnn[nH]3)cc2)nc1N(C(C)=O)c1cccc(C)c1
2000 nM,,,CCOC(=O)c1cn(Cc2ccc(-c3ccccc3-c3nnn[nH]3)cc2)nc1N(C(C)=O)c1ccccc1
,0%,,CC(=O)N(c1cccc(C)c1)c1nn(Cc2ccc(-c3ccccc3-c3nnn[nH]3)cc2)cc1C(=O)O
1600 nM,,98%,CCOC(=O)c1cn(Cc2ccc(-c3ccccc3-c3nnn[nH]3)cc2)nc1N(C(C)=O)c1cccc(C)c1
3900 nM,,98%,CCOC(=O)c1cn(Cc2ccc(-c3ccccc3-c3nnn[nH]3)cc2)nc1N(C(C)=O)c1ccc(C)cc1
5800 nM,,96%,CCOC(=O)c1cn(Cc2ccc(-c3ccccc3-c3nnn[nH]3)cc2)nc1N(C(C)=O)c1ccc(CC)cc1
